Experimental data taken from PubChem BioAssay (NCI).
Values joined by “and” are separate entries in the source; they are usually repeats but may differ in a detail not shown here. Identical values can stand only once.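 Five compound concentrations were applied to cells in 96-well plates for 48 hours; endpoints were derived by simple linear interpolation of the resulting dose-response curve. Definition used: TGI = concentration required for complete inhibition of growth.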

How the values were obtained:
Experiment in all cases: growth of human tumour cells (NCI), 48 h
CCRF-CEM leukemia = test system: CCRF-CEM leukemia
DMS 114 small cell lung = test system: DMS 114 small cell lung
DMS 273 small cell lung = test system: DMS 273 small cell lung
LXFL 529 NSCLC = test system: LXFL 529 NSCLC
M19-MEL melanoma = test system: M19-MEL melanoma
NCI-H460 lung = test system: NCI-H460 lung
OVCAR-3 ovarian = test system: OVCAR-3 ovarian
SF-295 CNS = test system: SF-295 CNS
MCF7 breast = test system: MCF7 breast
MDA-MB-231 breast = test system: MDA-MB-231 breast
MDA-N = test system: MDA-N
NCI/ADR-RES ovarian = test system: NCI/ADR-RES ovarian

Row | SMILES | TGI (CCRF-CEM leukemia) [µM] | TGI (DMS 114 small cell lung) [µM] | TGI (DMS 273 small cell lung) [µM] | TGI (LXFL 529 NSCLC) [µM] | TGI (M19-MEL melanoma) [µM] | TGI (NCI-H460 lung) [µM] | TGI (OVCAR-3 ovarian) | TGI (SF-295 CNS) | TGI (MCF7 breast) [µM] | TGI (MDA-MB-231 breast) [µM] | TGI (MDA-N) [µM] | TGI (NCI/ADR-RES ovarian) [µM]
1 | COc1cc(C2c3cc4c(cc3[C@@H](N(C)c3ccc(N(C)C)cc3)C3COC(=O)C23)OCO4)cc(OC)c1O (stereo partly specified) | 35.5 | 2.24 | 19.5 | 12.3 | 12.1 | 24.2 | 0.516 µM | 0.325 µM |  |  |  | 
2 | O=C(c1ccco1)N(C(=S)N1CCN(c2ccccn2)CC1)c1ccccc1 | > 100 | > 100 | > 100 | > 100 | > 100 | > 100 | > 100 µM | > 100 µM |  |  |  | 
3 | C=CCn1c(=N)/c(=C(\N)O)s/c1=C1/SC(=S)N(c2ccc(C)cc2)C1=O | > 100 |  |  | > 100 | > 100 | > 100 | > 100 µM | > 100 µM |  |  |  | 
4 | COC(=O)CC(C(C(C)=O)C(=O)OCc1ccccc1)N1C(=O)OC(c2ccccc2)C1c1ccccc1 (stereo unspecified) | > 100 | > 100 | > 100 | > 100 | > 100 | > 100 | 75.3 µM and > 100 µM | 75.4 µM and > 100 µM |  |  |  | 
5 | O=C(O)c1ccc(Nc2nc3nn(Cc4ccccc4)cc3c(=O)s2)cc1 | > 100 | > 100 | > 100 | > 100 | > 100 | > 100 | > 100 µM | > 100 µM |  |  |  | 
6 | CC[n+]1c(/C=C/c2ccc(N(CCCl)CCCl)cc2)ccc2cc(I)ccc21 |  | > 100 |  | 1.52 |  | 10.1 | 1.12 µM | 5.76 µM |  |  |  | 
7 | OC12c3ccccc3C1CCCCCC21OCCCO1 (stereo unspecified) | > 100 | > 100 | > 100 | > 100 | > 100 | > 100 | > 100 µM | > 100 µM |  |  |  | 
8 | CN1NC(c2ccccc2)=C(C#N)C(=O)CC1c1ccc(Br)cc1 (stereo unspecified) |  |  |  | > 100 |  | > 100 |  | 91.2 µM |  |  |  | 
9 | COc1ccc(/C(Cl)=C(\C=O)c2ccc(Cl)cc2)cc1OC | 10.3 | 59.5 | > 100 | 37.4 | 48.3 | > 100 | 31.7 µM | 14.4 µM |  |  |  | 
10 | COc1cc2c(c(OC)c1OC)-c1ccc(SC)c(=O)cc1C(CC(=O)Oc1cccc(F)c1)C2 (stereo unspecified) | > 31.9 | 1.07 |  | > 40.8 | 16.2 | 4.62 | 0.305 µM | > 100 µM |  |  |  | 
11 | Cc1ccc(C2C(Cl)C(=O)N2NC(=O)c2ccc(N)cc2)cc1 (stereo unspecified) | 39.2 | 23.3 | 17.4 | 29.3 | 38.9 | 35.5 | 36.7 µM | 47.8 µM |  |  |  | 
12 | OC12CCC3(O)c4ccccc4C3C1c1ccccc12 (stereo unspecified) | > 100 |  | > 100 | > 100 | > 100 | > 100 |  | > 100 µM |  |  |  | 
13 | CCn1c(CSc2nc(-c3ccccc3)c(-c3ccccc3)[nH]2)n[nH]c1=S | > 100 | > 100 | > 100 | > 100 | > 100 | > 100 | > 100 µM | > 100 µM |  |  |  | 
14 | COc1ccc2c(c1OC)C(=O)O[C@@H]2[C@H]1c2c(cc3c(c2OC)OCO3)CCN1C | > 100 |  |  |  |  | > 100 | 49.9 µM | > 100 µM | > 100 | > 100 | > 100 | > 100
15 | COC(=O)CNC(=O)CCC(C)[C@H]1CCC2C3C(C[C@H](OC(C)=O)[C@@]21C)[C@@]1(C)CCC2(C[C@H]1C[C@H]3OC(C)=O)OOC1(CCCCC1)OO2 (stereo partly specified) | 5.02 |  |  |  |  | 3.63 | 3.77 µM | 18.4 µM | 13.9 | 3.48 | 3.36 | 4.7
16 | C[n+]1cn(-c2nc3ccccc3nc2[N-]S(=O)(=O)c2ccccc2)c2ccccc21 | > 100 |  |  |  |  | > 100 | > 100 µM | > 100 µM | > 100 | > 100 | > 100 | > 100
17 | C1=NCCOCCN=Cc2ccc(cc2)OCc2cccc(n2)COc2ccc1cc2 | > 100 |  |  |  |  | > 100 | > 100 µM | > 100 µM | > 100 | > 100 | > 100 | > 100
18 | CC(C)=C[C@@H]1O[C@H](O)[C@@H]([C@H]2CC[C@@]3(C)[C@@H]4CC[C@H]5C(C)(C)C(=O)CC[C@@]56C[C@@]46CC[C@]23C)[C@@H]1O | 24.1 |  |  |  |  | 35.9 | 27.3 µM | 31.9 µM | 25 | 37.1 | 31.3 | 35.6
19 | CCCCCCCCCC(=O)NC(Cc1ccc(O)cc1)C(=O)NCCCNCCCCNCCCNC(=O)[C@@H](N)CCCN=C(N)N (stereo partly specified) | > 100 | > 100 | 42.9 | > 100 | > 100 | > 100 | > 100 µM | 85.6 µM |  |  |  | 
20 | [N-]=[N+]=Nc1ccc2c(c1)Sc1ccccc1N2CCCCN1CCN(C(=O)CCNC(=O)Cc2ccc(C(=O)c3ccccc3)cc2)CC1 | 8.26 |  |  |  |  | > 23.3 | 18.3 µM | 10.1 µM | 5.78 | 16.9 | 14.1 | > 39.1
21 | O=c1c2c3c(sc2nc2n1N=CN(c1ccc(F)cc1)C2)CCCC3 | > 100 |  |  |  |  | > 100 | > 100 µM | > 100 µM | > 100 | > 100 | > 100 | > 100
22 | NCCNC(=O)CN(CC(=O)O)C1CCCCC1N(CC(=O)O)CC(=O)O (stereo unspecified) | > 100 |  |  |  |  | > 100 | > 100 µM | > 100 µM | > 100 | > 100 | > 100 | > 100
23 | C=CC[C@]1(C2=NC(C)(C)CO2)c2ccccc2-c2ccccc2[C@H]1C(C)=O | 37.2 |  |  |  |  | 19.3 | 9.08 µM | 19.1 µM | 24.8 | 30 | 8.45 | 22.7
